Data on four compounds can be found in patent US20120101147A1, “INHIBITION OF HDAC2 TO PROMOTE MEMORY” (The General Hospital Corporation d/b/a Massachusetts …, priority 2008, published 2012).

Entries after “also recorded” stand apart in the source; their conditions may differ.

One series deals with hippocampus. The experiment in a line: Long-term potentiation (LTP) in hippocampal slices of treated mice. In kind it is in vivo, mouse. As to conditions: 25 mg/kg i.p. 10 days, one HFS 1×100 Hz. The procedure:
FIG. 6 SAHA treatment facilitates LTP in WT but not HDAC2KO hippocampus. a-b. One-month-old HDAC2KO mice and their WT littermates were injected with SAHA (25 mg/kg, i.p.) or saline for 10 days. An additional injection was introduced 30 minutes before sacrifice. Long-term potentiation (LTP) was induced by one HFS stimulation (1×100 Hz, 1 s) of Schaffer collaterals. a. […] (**, p<0.005, two-way ANOVA).
Electrophysiological analysis. 3-6 months old HDAC2OE, HDAC2KO or their littermates were killed by cervical dislocation, and hippocampi were rapidly dissected in iced oxygenated artificial CSF (ACSF). Transverse hippocampal slices, 400 μm thick were placed in a chamber and continuously perfused with oxygenated ACSF. A bipolar stimulating electrodes (0.002-inch-diameter nichrome wire; A-M Systems) placed in the stratum radiatum was used to elicit action potentials in CA3 axons. An ACSF-filled glass microelectrode with a resistance between 0.5 and 3 MΩ was placed in the stratum radiatum region of CA1 and was used to record the field excitatory post-synaptic potentials (fEPSP). Data were acquired using HEKA EPC10 and analyzed by patchmaster (HEKA). […] Baseline responses were recorded for 20 min. fEPSP were evoked at the CA1 synapses by stimulating Schaffer collaterals at a low frequency (2 per min) to establish a stable baseline. […]

The subject of series [1] is CA1 region of hippocampus. Kind of series: Golgi staining and synaptophysin immunostaining of hippocampal CA1. In kind it is in vivo, mouse. The method, then:
Memory test for mice with contextual fear conditioning training (foot shock 1.0 mA). HDAC2OE mice (SAHA group, n=12; saline group, n=12) and WT littermates (SAHA group, n=12; saline group, n=15) were treated with saline or SAHA (25 mg/kg, i.p.) for 10 days before memory test. b. CA1 region (pyramidal neuron layer; stratum radiatum (s.r.)) from WT and HDAC2OE mice received chronic SAHA treatment or saline treatment and were observed through immunostaining. Average optical signals for Ac-lysine were measured on pyramidal neuron layer; SVP signals were measured from s.r. c. Images of Golgi staining from CA1 region of hippocampus. For WT, naive, n=23; WT, SAHA, n=41; HDAC2OE, naïve, n=21; HDAC2OE, SAHA, n=32. Scale bar 10 μm. d. Memory test for mice with contextual fear conditioning training (foot shock 0.5 mA) after 10 day SAHA injection (25 mg/kg, i.p.). WT mice (SAHA, n=10; saline, n=10) and HDAC2 KO mice (SAHA, n=8; saline, n=8). e. CA1 region from HDAC2KO mice received chronic SAHA treatment or saline treatment and were observed through immunostaining. SVP-singles were quantified in the s.r. Saline, n=15; SAHA, n=22. Scale bar=50 μm. f. Images of Golgi staining of CA1 region of hippocampus from HDAC2KO mice. HDAC2KO, SAHA, n=24; HDAC2KO, naïve, n=27. *, p<0.05; **, p<0.005; ***,p<0.001, unpaired student t-test error bars indicate s.e.m.
Golgi impregnation Golgi-Cox-stained brains were cut to 200 μm thick cross-sections with vibratome and analyzed using a Zeiss 200 Axiovert microscope and Openlab software. The number of apical and basal spines on hippocampal CA1 pyramidal neurons was counted blind to the genotype. For each experimental group, a minimum of 10 cells per slice (animal number n=3) were analyzed. CA1 hippocampal neurons within the region −1.4 mm to −1.6 mm (relative to the bregma position) were included for the analysis.
Immunohistochemistry Immunohistochemical analysis was performed as described before (Guan, J. S., et al., Cell, 2005. 122(4): p. 619-31.). Antibodies were used in a 1:1000 concentration. […] Staining was quantified using LSMetal0 software (Zeiss).

The test system of a further series is mice. The experiment in a line: Context-dependent fear conditioning memory test. In kind it is in vivo, mouse. The method, then: Fear conditioning tests Context-dependent fear conditioning. Training consists of a 3 min exposure of mice to the conditioning box (context) followed by a foot shock (2 sec, 0.5/0.8/1.0 mA, constant current). The memory test was performed 24 hr later by re-exposing the mice for 3 min into the conditioning context. Freezing, defined as a lack of movement except for heart beat and respiration associated with a crouching posture, was recorded every 10 sec by two trained observers (one was unaware of the experimental conditions) during 3 min (a total of 18 sampling intervals). The number of observations indicating freezing obtained as a mean from both observers was expressed as a percentage of the total number of observations.
Chemical administration Suberoylanilide hydroxamic acid (SAHA) was synthesized as described previously in WO 93/07148 PTC/US92/08454. Sodium butyrate was purchased from Sigma (cat.B5887). SAHA and WT-161 were dissolved in DMSO as stock solutions and diluted in saline just before injection. Sodium butyrate was prepared in saline. Mice received intraperitoneal injection daily with either SAHA or saline for 10 days or 21 days.
C57/BL6 WT mice were injected with vehicle or BRD-6929 for 10 days. On day 11, mice were trained in contextual fear conditioning paradigm (Training consisted of a 3 min exposure of mice to the conditioning box (context, TSE) followed by a foot shock (2 sec, 0.8 mA, constant current). One hour after training, mice were injected with BRD-6929 or vehicle. On day 12, mice were returned to the training box and the freezing behavior were monitored and recorded.

The next series addresses T1, HDAC6 (Homo sapiens, UniProt Q9UBN7).
T1 sequence (Q9UBN7 1-1215): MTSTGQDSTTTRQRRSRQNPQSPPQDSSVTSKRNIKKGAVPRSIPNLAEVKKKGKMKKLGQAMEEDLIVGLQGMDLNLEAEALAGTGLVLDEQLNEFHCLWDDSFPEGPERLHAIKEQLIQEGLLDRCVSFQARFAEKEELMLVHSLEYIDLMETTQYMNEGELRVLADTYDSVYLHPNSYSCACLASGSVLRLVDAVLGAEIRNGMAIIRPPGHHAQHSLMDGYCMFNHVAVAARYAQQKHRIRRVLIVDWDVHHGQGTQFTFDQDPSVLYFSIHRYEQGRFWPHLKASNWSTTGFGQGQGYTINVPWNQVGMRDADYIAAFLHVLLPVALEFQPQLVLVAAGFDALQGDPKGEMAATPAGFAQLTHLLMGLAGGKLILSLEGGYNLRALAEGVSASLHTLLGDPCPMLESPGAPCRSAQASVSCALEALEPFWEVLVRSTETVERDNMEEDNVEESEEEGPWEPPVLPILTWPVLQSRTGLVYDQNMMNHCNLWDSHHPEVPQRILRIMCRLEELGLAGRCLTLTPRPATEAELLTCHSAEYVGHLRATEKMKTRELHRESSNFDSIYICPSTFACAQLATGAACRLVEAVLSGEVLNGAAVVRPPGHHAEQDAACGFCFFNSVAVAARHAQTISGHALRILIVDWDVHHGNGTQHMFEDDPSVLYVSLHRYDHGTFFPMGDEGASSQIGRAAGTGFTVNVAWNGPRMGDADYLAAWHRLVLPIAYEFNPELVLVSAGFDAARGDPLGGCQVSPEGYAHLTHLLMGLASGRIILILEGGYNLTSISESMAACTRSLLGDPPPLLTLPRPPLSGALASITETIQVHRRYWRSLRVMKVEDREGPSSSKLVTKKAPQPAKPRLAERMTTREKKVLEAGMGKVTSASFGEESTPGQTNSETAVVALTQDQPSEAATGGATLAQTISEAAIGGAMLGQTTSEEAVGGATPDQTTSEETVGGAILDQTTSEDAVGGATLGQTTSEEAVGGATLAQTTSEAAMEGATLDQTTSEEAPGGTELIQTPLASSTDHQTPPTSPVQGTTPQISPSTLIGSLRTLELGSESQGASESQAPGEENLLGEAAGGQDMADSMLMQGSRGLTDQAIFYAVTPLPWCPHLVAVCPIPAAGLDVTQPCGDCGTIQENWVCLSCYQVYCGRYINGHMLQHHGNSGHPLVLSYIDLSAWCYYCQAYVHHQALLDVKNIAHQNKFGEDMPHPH
To be noted: cited from earlier work.

For the next series, the system named is tetra-acetylated H2B. Kind of series: Western blot of tetra-acetylated H2B in primary striatal cells. In kind it is cell-based, mouse. To be noted: relative to DMSO controls. The method, then: (§1) Four compounds were tested including CI-994 (BRD-3696) and SAHA. […] BRD-6929 and BRD-5298 treatment results in a 2-5 fold increase in both marks at 1 and 10 uM.
Series [2] has as its system primary neuronal cultures. Kind of series: Immunofluorescence: overall cell number in primary neuronal cultures. In kind it is cell-based, mouse. To be noted: 1 and 10 uM; 6 h; primary neuronal cell cultures. The method, then:
(§2) 1) Compounds were pin transferred from 384-well plates (Abgene) using a 185 nl pin tool using a no touch bottom protocol.
(§3) 1) Media was aspirated using a plate washer (Tecan) protocol that leaves ˜5 ul residual volume and without touching the bottom of plates); or alternatively, wells were gently aspirated to remove media with 12-channel aspirator wand.
(§4) 2) A multichannel pipet or use liquid handling system (e.g. Combi, standard tubing; slow speed) was used to add 75 ul formaldehyde (4% in PBS) and wells incubated 10 min at room temperature.
(§5) 3) Formaldehyde was aspirated and cells rinsed 3 times with 100 ul PBS;
(§6) 4) PBS was aspirated and 100 ul blocking/permeablization buffer (0.1% Triton-X100, 2% BSA, in PBS) added and wells incubate 1 hour at room temperature.
(§7) 5) Blocking buffer was aspirated and 50 ul primary antibody diluted 1:500 in blocking buffer was added and wells incubated overnight at 4 degrees.
(§8) 1) Primary antibody was aspirated and wells rinsed 3 times with 100 ul blocking buffer
(§9) 2) 50 ul of secondary antibody diluted 1:500 and with Hoeschst (1:1000 from 10 mg/mL (16 mM) stock) added and wells incubated 1.5 hours at room temperature covered in foil to prevent photobleaching.
(§10) 3) Wells were rinsed 3 times with 100 ul PBS, and a 100 uls of PBS added and the plates, sealed
(§11) 4) Plates were then read on Acumen/IX Micro

The next series concerns H2B acetylation. Kind of series: Immunofluorescence: H2B acetylation in primary neuronal cell cultures. In kind it is cell-based, mouse. As to conditions: 1 and 10 uM; 6 h; primary neuronal cell cultures. The procedure: as §2, §3, §4, §5, §6, §7, §8, §9, §10, §11
The next series has as its system tetra-acetylated H4. Kind of series: Western blot of tetra-acetylated H4 in primary striatal cells. In kind it is cell-based, mouse. As to conditions: relative to DMSO controls. The procedure: as §1
In the next series the test system is c-fos. Kind of series: c-fos positive cells after fear conditioning training. In kind it is in vivo, mouse. As to conditions: compared to saline treated group. The text has this:
Studies described in the Examples below were also undertaken to determine which of the 11 histone deacetylases is responsible for the observed function and to identify selective HDAC inhibitors for enhancing memory. […] Remarkably, HDAC2 neuron specific knockout mice (loss of function) display enhanced learning. […] Thus it was unexpected that HDAC1/HDAC2 inhibitors would be useful for enhancing memory.

Setting [3] is: HDAC2KO mice, chronic treatment.

On to `O=C(CCCCCCC(=O)Nc1ccccc1)NO` [SAHA, suberoylanilide hydroxamic acid], for which the LTP entry with hippocampus (HDAC2 KO hippocampus) is recorded as “did not have a detectable effect; also recorded: No significant difference”; in the series on hippocampus (WT hippocampus), “modestly increased; also recorded: significant increase”. In addition, the “dendritic spine density of CA1 neurons” value in series [1] (setting [3]) is “not significantly affected”. Besides, the “synaptophysin staining in the stratum radiatum” value in series [1] (setting [3]) is listed as “not significantly affected”. The “decreased dendritic spine and synapses phenotype” value in series [1] (HDAC2OE mice, chronic treatment 25 mg/kg i.p.) was “completely abrogated”. The freezing behavior with mice (HDAC2KO mice, 25 mg/kg i.p. 10 days, foot shock 0.5 mA, n=8) amounted to 52.1±9.8%; in the series with mice (HDAC2OE mice, 25 mg/kg i.p. daily 10 days, foot shock 1.0 mA, n=12), 66.7±5.1%; with mice (WT control mice, 25 mg/kg i.p. 10 days, foot shock 0.5 mA, n=10) it was 45.0±6.9%; with mice (WT control mice, 25 mg/kg i.p. daily 10 days, foot shock 1.0 mA, n=12) it was 63.9±4.2%.

`CCCC(=O)[O-].[Na+]` [SB, sodium butyrate]: the “inhibition of HDAC6 activity in vitro” value at HDAC6 is recorded as “does not inhibit”.

Turning to `CN1CCN(CCNC(=O)c2ccc(C(=O)Nc3cc(-c4cccs4)ccc3N)cc2)CC1` [BRD-5298, N1-(2-amino-5-(thiophen-2-yl)phenyl)-N4-(2-(4-methylpiperazin-1-yl)ethyl)terephthalamide], the “tetra-acetylated H2B” value in the series on tetra-acetylated H2B is “trend toward increasing”. For the same compound, in series [2], the overall cell number result was “do not cause an increase or decrease”. Moreover, in the series with H2B acetylation, the H2B acetylation result is “significant increase”. Also, in the series on tetra-acetylated H4, the “tetra-acetylated H4” value was “significantly increased”.

`Nc1ccccc1NC(=O)c1ccc(CNC(=O)OCc2cccnc2)cc1` [MS-275]: in the series with c-fos, the “number of c-fos positive cells after fear conditioning training” value is “lower number”. The “associative learning in mice” value in the series with mice (mouse, in vivo) was “did not facilitate”.
